Results taken from BindingDB's records for doi:10.1016/j.bmcl.2009.03.165 (Gsk, 2009).

Molecular target: T1, Beta-secretase 2 (Homo sapiens, UniProt Q9Y5Z0)
T1 sequence (Q9Y5Z0 whole entry): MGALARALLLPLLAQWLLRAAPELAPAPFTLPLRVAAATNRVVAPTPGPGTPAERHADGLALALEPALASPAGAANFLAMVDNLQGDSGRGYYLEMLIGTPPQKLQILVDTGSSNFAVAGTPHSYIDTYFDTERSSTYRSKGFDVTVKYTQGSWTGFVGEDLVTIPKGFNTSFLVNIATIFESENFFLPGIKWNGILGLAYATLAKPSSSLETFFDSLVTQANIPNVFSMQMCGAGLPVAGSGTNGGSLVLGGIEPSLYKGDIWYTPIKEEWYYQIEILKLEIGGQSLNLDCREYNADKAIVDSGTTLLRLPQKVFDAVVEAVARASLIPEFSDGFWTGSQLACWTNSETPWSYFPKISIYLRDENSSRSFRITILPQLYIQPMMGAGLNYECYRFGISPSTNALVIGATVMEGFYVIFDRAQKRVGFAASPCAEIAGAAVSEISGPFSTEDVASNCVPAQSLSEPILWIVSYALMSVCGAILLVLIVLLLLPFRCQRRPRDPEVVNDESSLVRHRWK
Assay: Enzyme Inhibition Assay

CCNc1cc(C(=O)N[C@@H](Cc2ccccc2)[C@H](O)CNCc2cccc(C(F)(F)F)c2)cc(N2CCCCS2(=O)=O)c1 [BMCL193664 Compound 24]
IC50: 1410 nM
